Measurements reported in ChEMBL document CHEMBL4732061, “Synthesis, binding, and functional properties of tetrahydroisoquinolino-2-alkyl phenones as selective σR/TMEM97 ligands” (Eur J Med Chem, 2021).
Activity calls are given as the source filed them. The rule behind the calls is not given here.

How the values were obtained:
[1] = target: T1, Sigma intracellular receptor 2 (Rattus norvegicus, UniProt Q5U3Y7); assay: Displacement of [125I]-RHM-4 from sigma 2 receptor in rat liver membranes after 120 mins by microbeta scintillation counting method; assay type: cell membranes, Membrane
T1 sequence (Q5U3Y7 whole entry): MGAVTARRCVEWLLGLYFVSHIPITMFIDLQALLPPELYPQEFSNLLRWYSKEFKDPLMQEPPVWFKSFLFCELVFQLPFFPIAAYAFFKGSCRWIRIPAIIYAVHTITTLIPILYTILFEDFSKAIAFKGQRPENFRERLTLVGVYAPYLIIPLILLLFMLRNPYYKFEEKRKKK

MCF7 [2] = assay: Cytotoxicity against human MCF7 cells assessed as reduction in cell viability incubated for 24 hrs by CCK-8 assay; assay type: functional, cell-based
MCF7 [3] = assay: Cytotoxicity against human MCF7 cells assessed as reduction in cell viability incubated for 48 hrs by CCK-8 assay; assay type: functional, cell-based; conditions: MCF7, 48 h
HepG2 = assay: Cytotoxicity against human HepG2 cells assessed as reduction in cell viability incubated for 24 to 48 hrs in presence of cisplatin by CCK-8 assay; assay type: functional, cell-based; conditions: time 24-48 hrs
[4] = target: Sigma non-opioid intracellular receptor 1 (Cavia porcellus, UniProt Q60492); assay: Displacement of [3H](+)-pentazocine from sigma 1 receptor in guinea pig brain membranes after 120 mins by microbeta scintillation counting method; assay type: cell membranes, Membrane
Sigma non-opioid intracellular receptor 1, sequence (Q60492 whole entry): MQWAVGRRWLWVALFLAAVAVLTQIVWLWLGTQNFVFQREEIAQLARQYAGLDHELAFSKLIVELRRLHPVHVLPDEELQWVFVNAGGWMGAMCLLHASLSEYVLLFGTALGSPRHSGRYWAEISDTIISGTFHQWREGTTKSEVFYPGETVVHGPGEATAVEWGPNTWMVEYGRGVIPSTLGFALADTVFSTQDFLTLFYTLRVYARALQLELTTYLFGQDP

MCF-10A [5] = assay: Cytotoxicity against human MCF-10A cells assessed as reduction in cell viability incubated for 48 hrs by CCK-8 assay; assay type: cell-based
MCF7 [6] = assay: Cytotoxicity against human MCF7 cells assessed as reduction in cell viability incubated for 24 to 48 hrs in presence of cisplatin by CCK-8 assay; assay type: functional, cell-based; conditions: time 24-48 hrs
MDA-MB-231 = assay: Cytotoxicity against human MDA-MB-231 cells assessed as reduction in cell viability incubated for 24 to 48 hrs in presence of cisplatin by CCK-8 assay; assay type: functional, cell-based; conditions: time 24-48 hrs
KYSE-140 = assay: Cytotoxicity against human KYSE-140 cells assessed as reduction in cell viability incubated for 24 to 48 hrs in presence of cisplatin by CCK-8 assay; assay type: functional, cell-based; conditions: time 24-48 hrs
MCF-10A [7] = assay: Cytotoxicity against human MCF-10A cells assessed as reduction in cell viability incubated for 24 hrs by CCK-8 assay; assay type: cell-based
MCF7 [8] = assay: Cytotoxicity against human MCF7 cells assessed as reduction in cell viability incubated for 24 to 48 hrs by CCK-8 assay; assay type: functional, cell-based
[9] = target: Sigma intracellular receptor 2 (Homo sapiens) (UniProt Q5BJF2); assay: Antagonist activity at sigma 2 receptor in human MCF7 cells assessed as reduction in intracellular calcium release at 30 uM incubated for 3 hrs by Fluo-3 AM dye based confocal laser scanning microscopy; assay type: cell-based; conditions: filed as antagonist
Sigma intracellular receptor 2 (Homo sapiens), sequence (Q5BJF2 whole entry): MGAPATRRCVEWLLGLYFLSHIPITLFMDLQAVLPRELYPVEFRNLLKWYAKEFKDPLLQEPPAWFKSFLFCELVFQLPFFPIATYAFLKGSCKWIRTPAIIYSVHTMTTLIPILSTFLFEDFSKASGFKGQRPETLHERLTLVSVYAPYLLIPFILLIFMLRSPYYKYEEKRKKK

MCF-10A [10] = assay: Cytotoxicity against human MCF-10A cells assessed as reduction in cell viability incubated for 24 to 48 hrs by CCK-8 assay; assay type: cell-based
MCF-10A [11] = assay: Cytotoxicity against human MCF-10A cells assessed as reduction in cell viability at 1 to 100 uM incubated for 24 to 48 hrs by CCK-8 assay; assay type: cell-based; conditions: dose lower 1 µM, time lower 24 hrs, dose upper 100 µM, time upper 48 hrs
MCF7 [12] = assay: Cytotoxicity against human MCF7 cells assessed as reduction in cell viability at 1 to 100 uM incubated for 24 to 48 hrs by CCK-8 assay; assay type: functional, cell-based; conditions: dose 1-100 µM, time 24-48 hrs
[13] = Selectivity ratio of Ki for displacement of [3H](+)-pentazocine from sigma 1 receptor in guinea pig brain membranes to Ki for displacement of [125I]-RHM-4 from sigma2 receptor in rat liver membranes; assay type: cell membranes
[14] = target: Sigma intracellular receptor 2 (Homo sapiens) (UniProt Q5BJF2); assay: Agonist activity at sigma 2 receptor in human MCF7 cells assessed as stimulation of intracellular calcium release at 10 uM incubated for 3 hrs by Fluo-3 AM dye based confocal laser scanning microscopy; assay type: cell-based; conditions: filed as agonist
[15] = Homo sapiens, MCF7, 24 h, read-out: IC50
[16] = Homo sapiens, MCF-10A, 24 h, read-out: IC50

In the case of `COc1cc2c(cc1OC)CN(CCC(=O)c1c(C)c(OC)c(OC)c(OC)c1OC)CC2`, the Ki [1] is reported as 0.956 µM, the IC50 (MCF7 [2]; [15]) is reported as 11.5 µM and the IC50 (MCF7 [3]) is reported as 8.09 µM. For the same molecule, the Activity (HepG2) was “Active”, the Ki [4] was 3.19 µM and the IC50 (MCF-10A [5]) was 9.77 µM. The Activity (MCF7 [6]) was “Active”, the Activity (MDA-MB-231) was “Active” and the Activity (KYSE-140) was “Active”. It also gave an IC50 (MCF-10A [7]; [16]) of 11.9 µM.

Molecule `COc1cc2c(c(OC)c1OC)CCN(CCC(=O)c1c(C)c(OC)c(OC)c(OC)c1OC)C2` has a Ki [1] of 11.5 µM and a Ki [4] of over 1 µM.

With `COc1cc2c(cc1OC)CN(CCCCC(=O)c1c(C)c(OC)c(OC)c(OC)c1OC)CC2` the Ki [1] was 0.003 µM, the IC50 (MCF7 [8]) was over 100 µM and the Activity [9] was “Active”. The IC50 (MCF-10A [10]) was over 100 µM, the Activity (MCF-10A [11]) was “Non-Toxic” and the Activity (MCF7 [12]) was “inactive”. It also gave a Ki [4] of 0.16 µM.

`COc1cc2c(c(OC)c1OC)CN(CCC(=O)c1c(C)c(OC)c(OC)c(OC)c1OC)CC2` gave a Ki [1] of 3.18 µM, an IC50 (MCF7 [2]; [15]) of 25.5 µM and an IC50 (MCF7 [3]) of 19.7 µM. It also gave a Ki [4] of over 1 µM, an IC50 (MCF-10A [5]) of 27.4 µM and an IC50 (MCF-10A [7]; [16]) of 45.9 µM.

In the case of `COc1cc2c(cc1OC)CN(CCCCCCC(=O)c1c(C)c(OC)c(OC)c(OC)c1OC)CC2`, the Ki [1] is reported as 0.00133 µM, the Activity [9] is reported as “Active” and the IC50 (MCF7 [2]; [15]) is reported as 70.7 µM. The IC50 (MCF7 [3]) was 51.1 µM, the Ki [4] was over 1 µM and the IC50 (MCF-10A [5]) was 32.3 µM. It also gave an IC50 (MCF-10A [7]; [16]) of 54.2 µM.

For `COc1cc2c(c(OC)c1OC)CN(CCCC(=O)c1c(C)c(OC)c(OC)c(OC)c1OC)CC2`, the Ki [1] was over 1 µM and the Ki [4] was over 1 µM.

With `COc1cc2c(c(OC)c1OC)CCN(CCCCC(=O)c1c(C)c(OC)c(OC)c(OC)c1OC)C2` the Ki [1] was 0.0342 µM, the Ratio Ki [13] was over 29 and the Ki [4] was over 1 µM.

In the case of `COc1cc2c(c(OC)c1OC)CN(CCCCCC(=O)c1c(C)c(OC)c(OC)c(OC)c1OC)CC2`, the Ki [1] is reported as 0.0126 µM, the Ratio Ki [13] is reported as over 79 and the Ki [4] is reported as over 1 µM.

For `COc1cc2c(c(OC)c1OC)CN(CCCCCCC(=O)c1c(C)c(OC)c(OC)c(OC)c1OC)CC2`, the Ki [1] was over 1 µM, the IC50 (MCF7 [2]; mcf7) was “Not Active” and the IC50 (MCF7 [3]) was 39.7 µM. For the same molecule, the Ki [4] was over 1 µM, the IC50 (MCF-10A [5]) was 23.5 µM and the IC50 (MCF-10A [7]; mcf-10a) was “Not Active”.

Work on `COc1cc2c(c(OC)c1OC)CCN(CCCCCCC(=O)c1c(C)c(OC)c(OC)c(OC)c1OC)C2` yielded a Ki [1] of 0.04 µM, a Ratio Ki [13] of over 24 and a Ki [4] of over 1 µM.

In the case of `Fc1ccc(-n2cc(CCCCN3CCC4(CC3)OCc3ccccc34)c3ccccc32)cc1`, the Activity [14] is reported as “Active”.

In the case of `COc1cc2c(c(OC)c1OC)CCN(CCCCCC(=O)c1c(C)c(OC)c(OC)c(OC)c1OC)C2`, the Ki [1] is reported as 0.0197 µM, the Ratio Ki [13] is reported as over 50 and the Ki [4] is reported as over 1 µM.

In the case of `COc1cc2c(c(OC)c1OC)CCN(CCCC(=O)c1c(C)c(OC)c(OC)c(OC)c1OC)C2`, the Ki [1] is reported as 0.0418 µM, the Ratio Ki [13] is reported as over 24 and the Ki [4] is reported as over 1 µM.

With `COc1cc2c(cc1OC)CN(CCCC(=O)c1c(C)c(OC)c(OC)c(OC)c1OC)CC2` the Ki [1] was 0.0051 µM, the IC50 (MCF7 [8]) was over 100 µM and the Activity [9] was “Active”. For the same molecule, the IC50 (MCF-10A [10]) was over 100 µM, the Activity (MCF-10A [11]) was “Non-Toxic” and the Activity (MCF7 [12]) was “inactive”. For the same molecule, the Ki [4] was over 1 µM.

With `COc1cc2c(cc1OC)CN(CCCCCC(=O)c1c(C)c(OC)c(OC)c(OC)c1OC)CC2` the Ki [1] was 0.00038 µM, the IC50 (MCF7 [8]) was over 100 µM and the Activity [9] was “Active”. For the same molecule, the IC50 (MCF-10A [10]) was over 100 µM, the Activity (MCF-10A [11]) was “Non-Toxic” and the Activity (MCF7 [12]) was “inactive”. The Ki [4] was over 1 µM.

With `COc1cc2c(cc1OC)CN(CCCCNC(=O)c1cc(C)ccc1OC)CC2` the Activity [9] was “Active”.

Work on `COc1cc2c(c(OC)c1OC)CN(CCCCC(=O)c1c(C)c(OC)c(OC)c(OC)c1OC)CC2` yielded a Ki [1] of 0.0224 µM, a Ratio Ki [13] of over 44 and a Ki [4] of over 1 µM.
